One test concerns THP-1 cells. The experiment in a line: Measurement of intracellular cAMP concentration in PMA-treated THP-1 cells. The class given is cell-based. To be noted: THP-1 cells treated with PMA, co-incubated with 10 to 30 μg/ml (13 to 39 μM) of coenzyme A. As for the experimental part:
In a humid incubator under conditions of 37° C. and 5% CO2, THP-1 cells were cultured in an RPMI1640 medium supplemented with 10% fetal bovine serum, 1% penicillin and streptomycin, and 1% L-glutamine. The THP-1 cells were exposed to 50 ng/ml of PMA (phorbol 12-myristate 13-acetate) for 48 hours, followed by washing. Then, the cells were cultured at 37° C. in the presence of 1 mM 3-isobutyl-1-methyl-xanthine. After 10 minutes, the cells were stimulated with 30% mother's milk (AD: n=55, non-AD: n=55) for 10 minutes, and lysed with cell lysis buffer (Molecular Devices). In some experiments, THP-1 cells treated with 50 ng/ml of PMA for 48 hours were exposed to 10 μM prostaglandin E2 (PGE2). The intracellular cAMP level was measured using CatchPoint™ cyclicAMP fluorescent assay kit (Molecular Devices LLC) in accordance with the maker instruction. In some experiments, delta (Δ)-cAMP was calculated by subtracting the cAMP concentration in THP-1 stimulated with PMA without adjuvant stimulation from the cAMP concentration in THP-1 stimulated with PMA with adjuvant stimulation.

The test system of test [1] is Human monocyte-derived dendritic cells (Mo-DCs). The experiment in a line: Analysis of T cell-differentiation using dendritic cells (mixed lymphocyte reaction, IFNγ and IL-5 ELISA). Format: cell-based. To be noted: Mo-DCs pretreated with 1 μg/ml of coenzyme A (FIG. 3B). Here is the method: Human Mo-DCs and CD45RA-positive naive T cells (purity of more than 99%) were prepared according to the previous report (Takagi, R. et al., J Immunol 181: 186-189, 2008).
The immature Mo-DCs were stimulated with 1 to 10% of a liquid fraction of mother's milk or 0 to 10 μg/ml of coenzyme A. Two days after culturing with the liquid fraction or coenzyme A, to induce a mixed lymphocyte reaction (MLR), the cell component was further cultured together with HLA-DR-nonshared allogenic CD4-positive naive T cells in an RPMI1640 medium supplemented with 10% human serum for 6 to 8 days. Then, the T cells were restimulated with an anti-CD3 antibody and an anti-CD28 antibody (BD Pharmingen Inc.). After 48 hours, the culture supernatant was collected to analyze IFNγ and IL-5 by ELISA using IFNγ and IL-5 ELISA kits (R&D systems, Inc.).

The test system of a further test is SJL/J mice. The experiment in a line: Mixed lymphocyte reaction using CD3ε-negative cells harvested from mice to which coenzyme A had been orally administered. The class given is in vivo. As for the experimental part: SJL/J mice (H-2^s) and Nc/Nga mice (non H-2^s) were purchased from Charles River Inc. and Japan SLC, Inc., respectively. 50 μg/ml of coenzyme A was orally administered to the SJL/J mice. Two days later, CD3ε-negative cells were obtained from mesenteric lymph node cells using “[…]” (Miltenyi Biotec Inc.). On the same day, CD62L-positive naive CD4-positive T cells were obtained from the spleens of the Nc/Nga mice using “CD4^+ T cell isolation kit” and “CD62L^+ T cell isolation kit” (Miltenyi Biotec Inc.). Then, 1×10^4 CD3ε-negative cells and 1×10^5 allogenic CD62L-positive naive CD4-positive T cells were co-cultured in a 96-well flat-bottomed culture plate. A mixed lymphocyte reaction (MLR) was induced in an RPMI1640 medium supplemented with 10% FCS for 7 days. Next, the T cells were restimulated with an anti-CD3 antibody and an anti-CD28 antibody (Biolegends, Inc.). The culture supernatant were harvested 16 hours later, and analyzed for IFNγ, IL-4, and
IL-5 using IFNγ, IL-4 and IL-5 ELISA kits (R&D systems, Inc.).
Coenzyme A-containing drinking water (10 to 20 μg/kg/day) was orally administered to mice. […] cells were isolated from the mesenteric lymph node 2 days after the coenzyme A administration, and co-cultured with allogenic CD62L-positive naive CD4-positive T cells.

Setting [2] is: oral, drinking water 10 to 20 μg/kg/day, mesenteric lymph node cells isolated 2 days after administration (FIG. 4A).
Where [3] appears, read: treated mice, oral 10 to 20 μg/kg/day (FIG. 4B).

As to `CC(C)(COP(=O)(O)OP(=O)(O)OC[C@H]1O[C@@H](n2cnc3c(N)ncnc32)[C@H](O)[C@@H]1OP(=O)(O)O)[C@@H](O)C(=O)NCCC(=O)NCCS` [coenzyme A], the “intracellular cAMP” value in the test with THP-1 cells is on record as “elevated”. Further, in test [1], the “differentiation of allogenic naive CD4-positive T cells into Th2 cells” value is “differentiated into Th2 cells”. Also, in the test on SJL/J mice (setting [2]), the “IFNγ production in T cells (MLR)” value is “No statistically significant difference”, the “IL-4 production in T cells (MLR)” value was “significantly induced” and the “IL-5 production in T cells (MLR)” value was “significantly induced”. Besides, in the test with SJL/J mice (setting [3]), the IL-4/IFNγ ratio entry is “significantly high” and the IL-5/IFN ratio result was “significantly high”.

Values taken from patent US8993254B2, “Methods for evaluating risk of mother's milk or food inducing an onset of atopic dermatitis, and mother's milk or food with reduced risk of inducing an onset of atopic dermatitis” (Saitama Medical University, priority 2009, dated 2015).
